Laboratory results: PMC11050443, “Discovery of Strong 3-Nitro-2-Phenyl-2H-Chromene Analogues as Antitrypanosomal Agents and Inhibitors of Trypanosoma cruzi Glucokinase” (International Journal of Molecular Sciences, 2024)
“And” between values parts separate entries of the source, which are not always exact repeats. Equal entries are not always repeated.

Key:
NIH-3T3 fibroblasts = assay: In vitro cytotoxicity assay of mammalian NIH-3T3 fibroblasts (Alamar blue); format: cell-based; details: NIH-3T3 fibroblast growth inhibition, host cell toxicity; 4 days; N = 3
Protocol: The in vitro cell culturing of mammalian NIH-3T3 fibroblasts following treatment with inhibitors to assess for cytotoxicity has previously been described. DMEM lacking phenol red and supplemented with 2% FBS and 1% PSG was warmed up. NIH-3T3 cells were trypsinized, as described in the cell culture protocol. When cells became detached, they were harvested in DMEM lacking phenol red and including 2% FBS and 1% PSG. The cells were centrifuged at 1000 rpm for 5 min, the medium was discarded, and the cells were resuspended in fresh DMEM lacking phenol red and including 2% FBS and 1% PSG. The cells were centrifuged at 1000 rpm for 5 min, resuspended in the medium, counted, and diluted to 500,000 cells/mL. Dilution was accomplished by transferring the stock number of cells into a sterile basin and 100 μL of cells was added to each well of a transparent, sterile, flat-bottom, 96-well microplate (50,000 cells/well) using a multichannel pipette. The plate was placed into the incubator for 3 h to allow cells to attach. The 3-nitro-2-phenyl-2H-chromene compounds were thawed from −80 °C to room temperature. The compounds were prepared as 10.0 mM stock solutions in 100% DMSO. A volume of 2.0 μL of a given compound plus a volume of 98.0 μL of fresh media were both added to a well in the first row of the 96-well microplate; this was performed for each compound to be tested. The solutions were mixed with a micropipette, followed by the transfer of 100 μL to the next row and repeated. The compound solutions ranged from 0.0139–30.3 μM and this was accomplished by serial dilution using a 3-fold dilution. After incubation for 4 days, 10.0 μL of Alamar blue was added to each well. Absorbance readings were measured using a Victor Nivo multimode microplate reader (PerkinElmer, Inc.; Shelton, CT, USA) at λ = 590 nm. All measurements were performed in triplicate and TC50 determinations for percent growth inhibition were carried out using GraphPad Prism 10.0. The final volume per well of cells and a given compound was 100 μL and this volume became 110 μL after the addition of Alamar blue. The detergent SDS was used as a positive control and its final solution concentration was 0.1%. Three controls were carried out, as follows: (a) NIH-3T3 cells alone, (b) perished NIH-3T3 cells (NIH-3T3 cells in the presence of 0.1% SDS), and (c) the medium alone.

[1] = tested on: T. cruzi (Tulahuen strain) infective form co-cultured in NIH-3T3 fibroblasts; assay: In vitro T. cruzi biological assay (β-galactosidase/CPRG); format: cell-based, Trypanosoma cruzi; details: for IC50: Tulahuen strain infective form growth inhibition co-cultured in NIH-3T3 fibroblasts, 4 days, N = 3; for T. cruzi growth inhibition (in words): efficacy in IC50
Protocol: General methods for the preparation of in vitro cell cultures involving T. cruzi parasites and mammalian cells along with the exposure to inhibitors has previously been described by Andriani and colleagues. T. cruzi (Tulahuen strain) that expresses β-galactosidase was harvested by centrifugation at 2500 rpm for 7 min. Parasites were rinsed twice with DMEM lacking phenol red and supplemented with 2% fetal bovine serum (FBS) and 1% penicillin—streptomycin—L-glutamine (PSG); the final concentrations of the PSG components were 100 U/mL penicillin, 0.1 mg/mL streptomycin, and 0.292 mg/mL L-glutamine. It was necessary to exclude phenol red since it interferes with the absorbance reading at λ = 590 nm. The parasites were centrifuged again for 7 min at 2500 rpm and the 50 mL tubes were carefully removed from the centrifuge. The tubes were placed on a rack with an incubator so that the trypomastigotes would move out of the pellet in a timeframe of 3–5 h. During this period, 100 μL of NIH-3T3 cells (50,000 cells) were plated per well in a transparent, clear, flat-bottom, and sterile 96-well microplate. This plate was placed in an incubator for 3 h at 37 °C to allow the cells to attach. The 3-nitro-2-phenyl-2H-chromene compounds (inhibitors) that were prepared as 10.0 mM stock solutions in 100% DMSO were thawed from −80 °C to room temperature. The compound solutions were diluted to their desired working concentrations, which ranged from 0.0781–10.0 μM. This was accomplished by serial dilution using a 2-fold dilution. A total of 100 μL of parasites was added to each well, which contained 50,000 trypomastigotes, and were incubated for 4 days. Using a multichannel pipette, 50.0 μL of the substrate solution [500 μM CPRG in phosphate buffered saline supplemented with 0.5% detergent NP-40] was added to each well of the 96-well microplate. The plate was placed into an incubator for 4 h followed by measuring absorbance readings at λ = 590 nm using a Victor Nivo multimode microplate reader (PerkinElmer, Inc.; Shelton, CT, USA). All measurements were performed in triplicate; absorbance values were proportional to parasite cell viability. IC50 determinations for percent growth inhibition were processed using GraphPad Prism 10.0. Amphotericin B was used as a positive control, the final solution concentration of which was 4.0 μM (prepared as a 270 μM stock solution). Four control conditions were carried out, as follows: (a) NIH-3T3 cells and parasites, (b) NIH-3T3 cells without parasites, (c) NIH-3T3 cells, parasites, and 4.0 μM amphotericin B, and (d) the medium alone.

TcGlcK = tested on: TcGlcK; parameters: method as in PMID 31133533; details: earlier HTS campaign of 13,040 compounds; cited from earlier work
[2] = Trypanosoma cruzi, TULAHUEN, NIH3T3, 96 h

For `CCOc1ccc(C2Oc3ccc(Br)cc3C=C2[N+](=O)[O-])cc1OC` (stereo not shown) [Compound 1, 6-Bromo-2-(4-ethoxy-3-methoxyphenyl)-3-nitro-2H -chromene], the “NIH-3T3 TC50” value (NIH-3T3 fibroblasts) was 16.0 ± 1.84 µM, the IC50 [1, 2] was under 2 µM and the IC50 [1] was 1.49 ± 0.07 µM. The IC50 (TcGlcK) was 6.1 µM.
For `CCOc1ccc(C2Oc3ccc(Br)cc3C=C2[N+](=O)[O-])cc1OCC` (stereo not shown) [Compound 2, 6-Bromo-2-(3,4-diethoxyphenyl)-3-nitro-2H -chromene], the IC50 [1, 2] was 1.44 ± 0.07 µM.
With `COc1ccc(C2Oc3c(cc(Br)cc3OC)C=C2[N+](=O)[O-])cc1OC` (stereo not shown) [Compound 3, 6-Bromo-2-(3,4-dimethoxyphenyl)-8-methoxy-3-nitro-2H -chromene] the “NIH-3T3 TC50” value (NIH-3T3 fibroblasts) was 17.5 ± 1.90 µM and the IC50 [1, 2] was 0.96 ± 0.02 µM.
With `COc1ccc(C2Oc3ccc(Br)cc3C=C2[N+](=O)[O-])cc1OC` (stereo not shown) [Compound 4, 6-Bromo-2-(3,4-dimethoxyphenyl)-3-nitro-2H -chromene] the “NIH-3T3 TC50” value (NIH-3T3 fibroblasts) was 16.4 ± 1.91 µM, the IC50 [1, 2] was under 2 µM and the IC50 [1] was 1.31 ± 0.15 µM.
For `COc1ccc(C2Oc3c(Br)cc(Br)cc3C=C2[N+](=O)[O-])cc1OC` (stereo not shown) [Compound 5, 6,8-Dibromo-2-(3,4-dimethoxyphenyl)-3-nitro-2H -chromene], the IC50 [1, 2] was 0.64 ± 0.23 µM.
In the case of `CCOc1ccc(C2Oc3c(Br)cc(Br)cc3C=C2[N+](=O)[O-])cc1OC` (stereo not shown) [Compound 6, 6,8-Dibromo-2-(4-ethoxy-3-methoxyphenyl)-3-nitro-2H -chromene], the “NIH-3T3 TC50” value (NIH-3T3 fibroblasts) is reported as 18.1 ± 0.24 µM, the IC50 [1, 2] is reported as at least 2 µM and the IC50 [1] is reported as 2.56 ± 0.26 µM.
In the case of `O=[N+]([O-])C1=Cc2cc(Br)cc(Br)c2OC1c1c(Cl)cccc1Cl` (stereo not shown) [Compound 7, 2-(2,6-Dichlorophenyl)-6,8-dibromo-3-nitro-2H -chromene], the “NIH-3T3 TC50” value (NIH-3T3 fibroblasts) is reported as 11.9 ± 0.51 µM, the IC50 [1, 2] is reported as 0.64 ± 0.02 µM and the “T. cruzi growth inhibition (in words)” value [1] is reported as “nanomolar efficacy”.
Compound `CCOc1ccc(C2Oc3c(cc(Br)cc3OC)C=C2[N+](=O)[O-])cc1OC` (stereo not shown) [Compound 8, 6-Bromo-2-(4-ethoxy-3-methoxyphenyl)-8-methoxy-3-nitro-2H -chromene] has an IC50 [1, 2] of 1.85 ± 0.15 µM.
For `CCOc1ccc(C2Oc3c(Cl)cc(Cl)cc3C=C2[N+](=O)[O-])cc1OCC` (stereo not shown) [Compound 9, 6,8-Dichloro-2-(3,4-diethoxyphenyl)-3-nitro-2H -chromene], the “NIH-3T3 TC50” value (NIH-3T3 fibroblasts) is given as 17.5 ± 1.60 µM and the IC50 (TcGlcK) is given as 4.8 µM.
With `CCOc1ccc(C2Oc3ccccc3C=C2[N+](=O)[O-])cc1OCC` (stereo not shown) [Compound 10, 2-(3,4-Diethoxyphenyl)-3-nitro-2H -chromene] the “NIH-3T3 TC50” value (NIH-3T3 fibroblasts) was 9.45 ± 2.20 µM and the IC50 [1, 2] was 2.56 ± 0.26 µM.
With `O=[N+]([O-])C1=Cc2cc(Br)ccc2OC1c1ccccc1Cl` (stereo not shown) [Compound 11, 6-Bromo-2-(2-chlorophenyl)-3-nitro-2H -chromene] the “NIH-3T3 TC50” value (NIH-3T3 fibroblasts) was 4.12 µM and 4.12 ± 1.95 µM and the “T. cruzi growth inhibition (in words)” value [1] was “nanomolar efficacy”.
For `O=[N+]([O-])C1=Cc2ccccc2OC1c1c(Cl)cccc1Cl` (stereo not shown) [Compound 13, 2-(2,6-Dichlorophenyl)-3-nitro-2H -chromene], the IC50 [1, 2] was 3.08 ± 0.08 µM.
